Results on one compound are retold here after ChEMBL document CHEMBL5046231, “Modulation of Naturally Occurring Linear Dipeptide Chirality to Reduce the Affinity for Oligopeptide Transporter 1 and Increase Intestinal Stability for an Enhanced Colon-Targeting Effect in the Treatment of Inflammatory Bowel Disease: An Application of trans-4-l-Hydroxyprolyl-l-serine” (J Med Chem, 2022).

Active and inactive are the calls of the source. No cut-off for these calls is given here.

For data set [1], the system named is Mus musculus. The data set is described as follows: Anti-colitis activity against DSS-induced colitis in C57BL/6 mouse model assessed as increase in colon length at 25 mg/kg, po administered via gavage twice daily for 10 days. To be noted: time 10.0 day. Format: functional, organism-based.
A short description of data set [2]: AUC (0 to 6 hrs) in DSS-induced colitis C57BL/6 mouse model at 25 mg/kg, po measured up to 6 hrs by UPLC-MS/MS analysis. Format: ADME, organism-based. The arrangement: route oral, dose 25 mg/kg, time <=6. As to conditions: in vivo.
Data set [3] is described as follows: Metabolic stability in DSS-induced C57BL/6 mouse jejunum assessed as half life measured up to 12 hrs by HPLC analysis. It counts as ADME, tissue-based.
Data set [4] in a line: Toxicity in healthy C57BL/6 mouse assessed as histological changes in spleen at 100 mg/kg, po administered for 10 days by H and E staining based assay. It counts as organism-based. To be noted: in vivo, 240 h, time 10 day.
The test system of data set [5] is Mus musculus. Kind of data set: Anti-colitis activity against DSS-induced colitis in C57BL/6 mouse model assessed as decrease in MPO level in colon at 50 mg/kg, po administered via gavage twice a day for 10 days. Format: functional. Set-up: scale not given: the % may be the effect or the level left. As to conditions: time 10 day.
For data set [6], the target named is T1, Solute carrier family 15 member 1 (Homo sapiens, UniProt P46059).
T1 sequence (P46059 whole entry): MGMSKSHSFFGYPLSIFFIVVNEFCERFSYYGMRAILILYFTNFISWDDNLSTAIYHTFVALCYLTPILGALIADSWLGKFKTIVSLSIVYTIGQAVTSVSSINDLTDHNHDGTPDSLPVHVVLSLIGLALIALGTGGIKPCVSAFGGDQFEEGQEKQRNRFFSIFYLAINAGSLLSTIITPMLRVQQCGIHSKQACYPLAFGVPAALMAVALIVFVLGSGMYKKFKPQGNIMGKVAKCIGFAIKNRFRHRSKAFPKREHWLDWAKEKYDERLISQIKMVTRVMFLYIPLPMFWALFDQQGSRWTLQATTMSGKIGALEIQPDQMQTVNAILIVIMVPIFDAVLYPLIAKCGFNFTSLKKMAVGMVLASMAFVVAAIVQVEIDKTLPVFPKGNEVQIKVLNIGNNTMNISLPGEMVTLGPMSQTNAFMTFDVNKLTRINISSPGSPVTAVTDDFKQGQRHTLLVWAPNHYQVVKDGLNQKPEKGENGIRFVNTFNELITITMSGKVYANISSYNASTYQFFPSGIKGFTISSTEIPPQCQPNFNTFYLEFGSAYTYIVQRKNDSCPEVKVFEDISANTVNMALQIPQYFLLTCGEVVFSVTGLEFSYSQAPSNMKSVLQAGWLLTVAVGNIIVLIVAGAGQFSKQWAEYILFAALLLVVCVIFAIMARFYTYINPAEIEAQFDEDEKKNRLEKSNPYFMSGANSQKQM
Kind of data set: Substrate activity at PEPT1 in human Caco-2 cells assessed as inhibition of Gly-Sar substrate uptake by UPLC-MS/MS analysis. It counts as cell-based. As to conditions: human, caco-2.

Data set [7] deals with Mus musculus. Kind of data set: Antiinflammatory activity in DSS-induced C57BL/6 mouse model of colitis assessed as decrease in IL-1beta level 25 to 100 mg/kg, po administered via gavage twice a day for 10 days. It counts as functional, organism-based. To be noted: dose 25-100 mg/kg, time 10.0 day.
The test system of data set [8] is Mus musculus. Kind of data set: Anti-colitis activity against DSS-induced colitis in C57BL/6 mouse model assessed as assessed as recovery of body weight at 25 mg/kg, po administered via gavage twice daily for 10 days. To be noted: time 10.0 day. It counts as functional, organism-based.
Data set [9] can be described thus: Chemical stability in 0.1 M HCl at pH 1.2 assessed as half life measured up to 12 hrs by HPLC analysis. It counts as physicochemical.
The nature of data set [10]: Chemical stability in acetate buffer at pH 4.5 assessed as half life measured up to 12 hrs by HPLC analysis. Format: physicochemical.
In data set [11] the test system is Mus musculus. Kind of data set: Anti-colitis activity against DSS-induced C57BL/6 mouse model of colitis assessed as fold change in colon length at 25 to 100 mg/kg, po administered via gavage twice a day for 10 days relative to SASP. Format: functional. To be noted: dose 25-100 mg/kg; time 10 day.

For orientation: half-life means the time in which the quantity being followed falls by half. On to `O=C(O)[C@@H](CO)NC(=O)[C@H]1C[C@@H](O)CN1`, for which the result in the data set on Mus musculus [1], with Mus musculus [7] and in the data set on Mus musculus [8] was Active. This compound also registered an AUC in data set [2] of 54.65 microM/L.hr. Besides, the half-life in [3], in data set [9] and in data set [10] was > 12 h each time. Besides, the Activity entry in data set [4] is “Non-Toxic”; in the data set on Mus musculus [5], 47.5%. Also, in data set [6], the “inhibition (INH)” value was “Not Active”. Moreover, in the data set on Mus musculus [11], the “fold change (FC)” value came to 1.2.
